Results as given in ChEMBL document CHEMBL3352529 (J Med Chem, 2014).
pIC50, pKi: −log10 of the molar value.

Experiments:
[1] = biological target: T1, Neuraminidase (Influenza A virus, UniProt A5Z252); experiment: Inhibition of Influenza A virus A/chicken/china/1220/2012(H5N1) Neuraminidase N1
[2] = biological target: T2, Neuraminidase (Influenza A virus, UniProt B4URF0); design: species or system A/chicken/china/415/2013(H9N2)
[3] = biological target: T1, Neuraminidase; experiment: Binding affinity to Influenza A virus H3N2 Neuraminidase N1
[4] = biological target: T1, Neuraminidase; experiment: Binding affinity to Influenza A virus H5N1 Neuraminidase N1
[5] = biological target: T2, Neuraminidase; experiment: Binding affinity to Influenza A virus A/Paris/2590/2009 H1N1 Neuraminidase N1
[6] = biological target: T1, Neuraminidase; experiment: Inhibition of Influenza A virus H1N1 Neuraminidase N1
[7] = biological target: T1, Neuraminidase; experiment: Inhibition of Influenza A virus H3N2 Neuraminidase N1

T2 sequence (B4URF0 whole entry): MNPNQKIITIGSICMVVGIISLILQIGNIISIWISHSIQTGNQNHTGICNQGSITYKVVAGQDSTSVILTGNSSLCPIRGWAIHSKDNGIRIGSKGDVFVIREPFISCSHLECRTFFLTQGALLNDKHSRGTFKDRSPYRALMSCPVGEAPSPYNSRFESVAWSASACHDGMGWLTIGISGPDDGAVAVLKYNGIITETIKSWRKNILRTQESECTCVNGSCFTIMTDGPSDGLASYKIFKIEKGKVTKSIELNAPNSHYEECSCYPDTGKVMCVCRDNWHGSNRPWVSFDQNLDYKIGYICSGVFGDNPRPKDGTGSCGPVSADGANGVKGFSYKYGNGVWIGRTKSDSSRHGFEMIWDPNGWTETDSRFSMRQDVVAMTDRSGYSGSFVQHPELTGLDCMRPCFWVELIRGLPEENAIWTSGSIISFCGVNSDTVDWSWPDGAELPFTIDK

| Structure (SMILES) | pIC50 [1] | pIC50 [2] | also measured |
| --- | --- | --- | --- |
| CCC(CC)O[C@@H]1C=C(C(=O)O)C[C@H](N(Cc2ccc(-c3ccccc3)cc2)C(=N)N)[C@H]1NC(C)=O | 6.82 | 6.33 |  |
| CCC(CC)O[C@@H]1C=C(C(=O)O)C[C@H](N(CCCc2ccccc2)C(=N)N)[C@H]1NC(C)=O | 6.10 | < 5.30 |  |
| CCC(CC)O[C@@H]1C=C(C(=O)O)C[C@H](NCc2ccccc2Br)[C@H]1NC(C)=O | 7.89 | 5.94 |  |
| CCC(CC)O[C@@H]1C=C(C(=O)O)C[C@H](N(Cc2ccccc2OC)C(=N)N)[C@H]1NC(C)=O | 6.26 | 6.31 |  |
| CCCCCN(C(=N)N)[C@H]1CC(C(=O)O)=C[C@@H](OC(CC)CC)[C@@H]1NC(C)=O | 6.11 | < 5.30 |  |
| CCC(CC)O[C@@H]1C=C(C(=O)O)C[C@H](NCc2ccccc2F)[C@H]1NC(C)=O | 8.00 | 5.57 |  |
| CCC(CC)O[C@@H]1C=C(C(=O)O)C[C@H](NCc2ccccc2OCc2ccco2)[C@H]1NC(C)=O | 7.23 | 5.82 |  |
| CCC(CC)O[C@@H]1C=C(C(=O)O)C[C@H](NC(=N)N)[C@H]1NC(C)=O | 8.16 | 8.19 |  |
| CCC(CC)CN(C(=N)N)[C@H]1CC(C(=O)O)=C[C@@H](OC(CC)CC)[C@@H]1NC(C)=O | 6.02 | < 5.30 |  |
| CCC(CC)O[C@@H]1C=C(C(=O)O)C[C@H](N(CCC(C)C)C(=N)N)[C@H]1NC(C)=O | 6.43 | < 5.30 |  |
| CCC(CC)O[C@@H]1C=C(C(=O)O)C[C@H](NCc2ccc(-c3cccs3)cc2)[C@H]1NC(C)=O | 8.68 | 5.45 |  |
| CCC(CC)CN[C@H]1CC(C(=O)O)=C[C@@H](OC(CC)CC)[C@@H]1NC(C)=O | 7.57 | 6.52 |  |
| CCC(CC)O[C@@H]1C=C(C(=O)O)C[C@H](N(CC(C)C)C(=N)N)[C@H]1NC(C)=O | 6.64 | < 5.30 |  |
| CCC(CC)O[C@@H]1C=C(C(=O)O)C[C@H](NCCCc2ccccc2)[C@H]1NC(C)=O | 7.49 | < 5.30 |  |
| CCC(CC)O[C@@H]1C=C(C(=O)O)C[C@H](NCc2ccccc2OC)[C@H]1NC(C)=O | 7.51 | 5.79 |  |
| CCC(CC)O[C@@H]1C=C(C(=O)O)C[C@H](N(Cc2ccccc2)C(=N)N)[C@H]1NC(C)=O | 5.93 | 5.59 |  |
| CCC(CC)O[C@@H]1C=C(C(=O)O)C[C@H](N(Cc2ccc(C(C)C)cc2)C(=N)N)[C@H]1NC(C)=O | 5.84 | 5.63 |  |
| CCC(CC)O[C@@H]1C=C(C(=O)O)C[C@H](NCc2ccc(-c3ccccc3)cc2-c2ccccc2)[C@H]1NC(C)=O | 7.37 | 8.49 |  |

| Structure (SMILES) | pIC50 [1] | pIC50 [2] | also measured |
| --- | --- | --- | --- |
| C=CCOc1ccccc1CN[C@H]1CC(C(=O)O)=C[C@@H](OC(CC)CC)[C@@H]1NC(C)=O | 7.05 | 5.33 |  |
| CCCCN(C(=N)N)[C@H]1CC(C(=O)O)=C[C@@H](OC(CC)CC)[C@@H]1NC(C)=O | 5.94 | 5.83 |  |
| CCCN(C(=N)N)[C@H]1CC(C(=O)O)=C[C@@H](OC(CC)CC)[C@@H]1NC(C)=O | 6.17 | < 5.30 |  |
| CCC(CC)O[C@@H]1C=C(C(=O)O)C[C@H](NCc2cccs2)[C@H]1NC(C)=O | 7.82 | 6.13 |  |
| CCC(CC)O[C@@H]1C=C(C(=O)O)C[C@H](NCCCN)[C@H]1NC(C)=O | < 7.00 | 6.02 |  |
| CC(=O)N[C@H]1C([C@H](O)[C@H](O)CO)OC(C(=O)O)=C(C/C=C/c2ccc(C)cc2)[C@@H]1O (stereo partly drawn) |  |  | pKi [3]: 3.66; pKi [4]: 5.14; pKi [5]: 5.77 |
| CCC(CC)O[C@@H]1C=C(C(=O)O)C[C@H](NCC(C)C)[C@H]1NC(C)=O | 7.11 | < 5.30 |  |
| CCC(CC)O[C@@H]1C=C(C(=O)O)C[C@H](NCc2ccc(-c3ccccc3)cc2Cl)[C@H]1NC(C)=O | 7.96 | 5.69 |  |
| CCC(CC)O[C@@H]1C=C(C(=O)O)C[C@H](NCc2ccccc2O)[C@H]1NC(C)=O | 7.68 | < 5.30 |  |
| CCC(CC)O[C@@H]1C=C(C(=O)O)C[C@H](NCc2ccc(-c3ccccc3)cc2)[C@H]1NC(C)=O | 8.72 | 5.92 |  |
| CC(=O)N[C@H]1[C@H]([C@H](O)[C@H](O)CO)OC(C(=O)O)=C[C@@H]1NC(=N)NC(=O)CSc1cccc2ccccc12 |  |  | pIC50 [6]: 7.68; pIC50 [7]: 7.60 |
| CCC(CC)O[C@@H]1C=C(C(=O)O)C[C@H](N(Cc2cccs2)C(=N)N)[C@H]1NC(C)=O | 6.70 | 6.68 |  |
| CCC(CC)O[C@@H]1C=C(C(=O)NO)C[C@H](N)[C@H]1NC(C)=O | < 7.00 | 6.96 |  |
| CCC(CC)O[C@@H]1C=C(C(=O)O)C[C@H](NCc2ccccc2Cl)[C@H]1NC(C)=O | 8.44 | 6.01 |  |
| CCC(CC)O[C@@H]1C=C(C(=O)NO)C[C@H](NC(=N)N)[C@H]1NC(C)=O | < 7.00 | 6.70 |  |
| CCCCN[C@H]1CC(C(=O)O)=C[C@@H](OC(CC)CC)[C@@H]1NC(C)=O | 7.72 | 5.64 |  |
| CCC(CC)O[C@@H]1C=C(C(=O)O)C[C@H](NC/C=C/c2ccccc2)[C@H]1NC(C)=O | 7.85 | 5.40 |  |
| CCC(CC)O[C@@H]1C=C(C(=O)O)C[C@H](NCc2ccccc2)[C@H]1NC(C)=O | 8.15 | 5.61 |  |
